Experimental data: article PMC3708311 (Journal of medicinal chemistry, 2008)

Assays:
ROCK-II = ROCK-II (Homo sapiens, UniProt O75116); assay: ROCK-II biochemical assay; conditions: ROCK-II IC50, as given in text
[1] = test system: myosin light chain bisphosphorylation (ppMLC); assay: cell-based myosin light chain bisphosphorylation; conditions: read-out: ppMLC cell-based IC50
Akt3 = Akt3 (Homo sapiens, UniProt Q9Y243); assay: Ambit kinase screen, single-point, Akt3; assay type: binding; conditions: read-out: percentage inhibition Akt3
Akt3, sequence (Q9Y243 whole entry): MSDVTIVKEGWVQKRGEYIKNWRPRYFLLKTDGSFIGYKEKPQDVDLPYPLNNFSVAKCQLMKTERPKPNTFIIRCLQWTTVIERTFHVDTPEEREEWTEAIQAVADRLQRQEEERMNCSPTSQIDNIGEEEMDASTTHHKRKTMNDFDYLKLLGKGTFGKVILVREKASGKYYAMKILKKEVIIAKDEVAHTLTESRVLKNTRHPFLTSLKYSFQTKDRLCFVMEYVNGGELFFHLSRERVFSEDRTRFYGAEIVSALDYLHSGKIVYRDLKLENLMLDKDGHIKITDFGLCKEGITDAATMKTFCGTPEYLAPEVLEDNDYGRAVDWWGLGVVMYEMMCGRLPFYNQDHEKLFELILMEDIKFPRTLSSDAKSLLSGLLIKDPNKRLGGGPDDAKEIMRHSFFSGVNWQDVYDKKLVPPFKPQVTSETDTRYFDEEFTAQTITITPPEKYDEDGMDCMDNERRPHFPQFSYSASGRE

Clk1 = Clk1 (Homo sapiens, UniProt P49759); assay: Ambit kinase screen, single-point, Clk1; assay type: binding; conditions: read-out: percentage inhibition Clk1
Clk1, sequence (P49759 whole entry): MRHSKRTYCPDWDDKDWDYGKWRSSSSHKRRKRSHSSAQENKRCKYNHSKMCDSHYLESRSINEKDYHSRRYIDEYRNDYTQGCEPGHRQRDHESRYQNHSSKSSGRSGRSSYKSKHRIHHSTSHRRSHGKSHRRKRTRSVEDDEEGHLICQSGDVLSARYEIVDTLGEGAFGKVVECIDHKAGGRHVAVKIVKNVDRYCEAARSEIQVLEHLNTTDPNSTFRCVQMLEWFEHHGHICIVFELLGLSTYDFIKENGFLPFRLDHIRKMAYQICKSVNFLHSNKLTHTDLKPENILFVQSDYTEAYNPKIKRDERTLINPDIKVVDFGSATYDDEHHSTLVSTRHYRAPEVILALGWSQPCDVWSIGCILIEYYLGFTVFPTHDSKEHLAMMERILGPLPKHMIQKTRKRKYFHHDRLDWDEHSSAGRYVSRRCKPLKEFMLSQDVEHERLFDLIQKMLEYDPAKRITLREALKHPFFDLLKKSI

Clk2 = Clk2 (Homo sapiens, UniProt P49760); assay: Ambit kinase screen, single-point, Clk2; assay type: binding; conditions: read-out: percentage inhibition Clk2
Clk2, sequence (P49760 whole entry): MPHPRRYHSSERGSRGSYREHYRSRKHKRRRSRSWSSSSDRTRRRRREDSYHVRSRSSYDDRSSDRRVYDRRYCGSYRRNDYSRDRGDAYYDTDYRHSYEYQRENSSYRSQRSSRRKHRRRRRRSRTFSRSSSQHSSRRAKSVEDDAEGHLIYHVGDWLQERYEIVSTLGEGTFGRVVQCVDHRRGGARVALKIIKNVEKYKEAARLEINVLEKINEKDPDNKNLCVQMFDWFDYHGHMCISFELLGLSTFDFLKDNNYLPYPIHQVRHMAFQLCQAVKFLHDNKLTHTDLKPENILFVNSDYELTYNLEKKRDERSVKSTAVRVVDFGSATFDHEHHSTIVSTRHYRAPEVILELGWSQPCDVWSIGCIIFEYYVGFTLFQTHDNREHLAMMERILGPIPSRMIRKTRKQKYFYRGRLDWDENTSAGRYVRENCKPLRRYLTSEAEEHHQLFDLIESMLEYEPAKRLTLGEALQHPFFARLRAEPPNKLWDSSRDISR

Clk4 = Clk4 (Homo sapiens, UniProt Q9HAZ1); assay: Ambit kinase screen, single-point, Clk4; assay type: binding; conditions: read-out: percentage inhibition Clk4
Clk4, sequence (Q9HAZ1 whole entry): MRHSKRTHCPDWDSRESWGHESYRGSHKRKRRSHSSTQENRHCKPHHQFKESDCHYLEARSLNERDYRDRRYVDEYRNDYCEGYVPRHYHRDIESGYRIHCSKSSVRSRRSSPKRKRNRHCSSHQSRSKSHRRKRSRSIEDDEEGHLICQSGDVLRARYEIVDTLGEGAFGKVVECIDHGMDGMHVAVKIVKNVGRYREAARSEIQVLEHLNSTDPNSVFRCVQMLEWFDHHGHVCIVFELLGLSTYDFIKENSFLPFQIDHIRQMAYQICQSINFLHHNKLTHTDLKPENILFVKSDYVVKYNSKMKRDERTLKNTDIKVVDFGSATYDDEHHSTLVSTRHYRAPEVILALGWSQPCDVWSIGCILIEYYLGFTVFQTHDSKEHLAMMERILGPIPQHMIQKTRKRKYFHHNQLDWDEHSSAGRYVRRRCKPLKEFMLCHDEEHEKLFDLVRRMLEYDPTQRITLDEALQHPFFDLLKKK

Lats2 = target: T1, Lats2 (Homo sapiens, UniProt Q9NRM7); assay: Ambit kinase screen, single-point, Lats2; assay type: binding; conditions: read-out: percentage inhibition Lats2
T1 sequence (Q9NRM7 1-1088): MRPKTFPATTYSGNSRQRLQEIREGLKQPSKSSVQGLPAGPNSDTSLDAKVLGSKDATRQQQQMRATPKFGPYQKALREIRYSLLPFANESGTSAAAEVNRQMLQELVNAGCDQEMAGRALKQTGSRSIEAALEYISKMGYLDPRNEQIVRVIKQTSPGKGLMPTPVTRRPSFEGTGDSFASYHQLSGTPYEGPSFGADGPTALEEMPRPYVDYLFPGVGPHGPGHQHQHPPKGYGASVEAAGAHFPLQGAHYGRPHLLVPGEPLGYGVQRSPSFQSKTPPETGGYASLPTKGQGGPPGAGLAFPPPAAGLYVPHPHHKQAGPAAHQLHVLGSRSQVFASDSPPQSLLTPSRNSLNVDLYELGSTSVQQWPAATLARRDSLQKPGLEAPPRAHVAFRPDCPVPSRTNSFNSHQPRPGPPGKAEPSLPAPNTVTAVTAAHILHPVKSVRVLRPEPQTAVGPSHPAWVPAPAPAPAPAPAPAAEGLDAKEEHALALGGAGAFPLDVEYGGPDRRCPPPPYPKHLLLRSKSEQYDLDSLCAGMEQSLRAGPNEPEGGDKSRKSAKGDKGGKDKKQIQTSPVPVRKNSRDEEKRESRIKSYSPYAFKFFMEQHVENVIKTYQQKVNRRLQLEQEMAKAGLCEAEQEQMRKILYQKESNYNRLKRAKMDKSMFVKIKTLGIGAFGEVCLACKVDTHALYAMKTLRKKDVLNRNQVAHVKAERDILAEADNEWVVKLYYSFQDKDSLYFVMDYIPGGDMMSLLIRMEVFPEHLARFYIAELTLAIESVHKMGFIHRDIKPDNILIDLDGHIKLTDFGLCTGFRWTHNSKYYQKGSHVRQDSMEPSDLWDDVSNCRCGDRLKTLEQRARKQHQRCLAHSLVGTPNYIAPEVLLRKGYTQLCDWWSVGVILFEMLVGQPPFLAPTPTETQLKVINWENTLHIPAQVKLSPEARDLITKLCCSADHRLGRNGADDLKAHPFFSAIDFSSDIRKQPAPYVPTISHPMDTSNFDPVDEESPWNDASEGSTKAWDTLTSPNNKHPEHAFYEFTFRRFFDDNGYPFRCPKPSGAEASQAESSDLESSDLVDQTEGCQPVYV

353 kinases = assay: profiling versus 353 kinases; assay type: binding; conditions: 3 µM
adrenergic receptor α1a = target: T2, adrenergic receptor α1a (Homo sapiens, UniProt P35348); assay: nonkinase panel, adrenergic receptor α1a; assay type: binding
T2 sequence (P35348 1-466): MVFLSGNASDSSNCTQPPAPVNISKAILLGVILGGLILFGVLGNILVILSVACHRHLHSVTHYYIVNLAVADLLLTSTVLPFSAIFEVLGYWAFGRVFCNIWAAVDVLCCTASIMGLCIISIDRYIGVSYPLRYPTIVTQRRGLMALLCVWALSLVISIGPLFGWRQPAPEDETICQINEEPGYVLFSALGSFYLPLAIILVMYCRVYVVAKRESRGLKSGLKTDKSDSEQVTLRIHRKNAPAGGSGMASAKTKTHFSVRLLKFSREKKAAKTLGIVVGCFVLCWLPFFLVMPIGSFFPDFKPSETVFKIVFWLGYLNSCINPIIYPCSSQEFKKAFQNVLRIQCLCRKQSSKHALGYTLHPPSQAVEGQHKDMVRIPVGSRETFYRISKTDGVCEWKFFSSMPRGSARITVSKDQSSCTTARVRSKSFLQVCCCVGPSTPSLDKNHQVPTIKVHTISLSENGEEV

adrenergic receptor α1b = target: T3, adrenergic receptor α1b (Homo sapiens, UniProt P35368); assay: nonkinase panel, adrenergic receptor α1b; assay type: binding
T3 sequence (P35368 1-520): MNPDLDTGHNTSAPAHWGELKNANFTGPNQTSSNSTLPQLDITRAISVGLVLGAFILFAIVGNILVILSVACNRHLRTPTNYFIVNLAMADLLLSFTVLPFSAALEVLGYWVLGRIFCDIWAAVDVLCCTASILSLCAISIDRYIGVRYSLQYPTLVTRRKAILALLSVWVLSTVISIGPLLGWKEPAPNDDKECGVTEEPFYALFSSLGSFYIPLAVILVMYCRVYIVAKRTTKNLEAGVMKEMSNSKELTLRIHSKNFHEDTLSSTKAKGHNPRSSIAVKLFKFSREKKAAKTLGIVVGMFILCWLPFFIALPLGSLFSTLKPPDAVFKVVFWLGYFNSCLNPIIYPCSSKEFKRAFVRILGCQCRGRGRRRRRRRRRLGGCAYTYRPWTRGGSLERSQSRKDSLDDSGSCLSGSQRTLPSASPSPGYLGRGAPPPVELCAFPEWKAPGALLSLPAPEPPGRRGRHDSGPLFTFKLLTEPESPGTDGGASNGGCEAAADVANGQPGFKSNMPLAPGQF

adrenergic receptor α2a = target: T4, adrenergic receptor α2a (Homo sapiens, UniProt P08913); assay: nonkinase panel, adrenergic receptor α2a; assay type: binding
T4 sequence (P08913 1-465): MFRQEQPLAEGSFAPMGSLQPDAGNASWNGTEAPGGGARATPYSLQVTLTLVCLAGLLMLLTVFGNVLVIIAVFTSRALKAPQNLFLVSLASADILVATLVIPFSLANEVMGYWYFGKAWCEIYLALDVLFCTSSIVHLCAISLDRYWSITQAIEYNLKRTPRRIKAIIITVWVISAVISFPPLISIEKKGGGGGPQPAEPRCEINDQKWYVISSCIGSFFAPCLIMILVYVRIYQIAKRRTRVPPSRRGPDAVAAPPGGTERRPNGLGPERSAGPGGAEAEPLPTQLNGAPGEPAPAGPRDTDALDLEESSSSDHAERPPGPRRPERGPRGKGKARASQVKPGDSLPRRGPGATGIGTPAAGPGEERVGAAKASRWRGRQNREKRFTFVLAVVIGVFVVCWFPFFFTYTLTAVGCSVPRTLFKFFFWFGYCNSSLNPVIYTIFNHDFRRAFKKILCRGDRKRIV

[2] = test system: p-MLC in trabecular meshwork tissue; assay: Western blot analysis of p-MLC in TM tissue from perfused porcine eyes; conditions: 25 µM, perfused at 15 mmHg for 5 h
[3] = test system: aqueous humor outflow facility from the trabecular meshwork; assay: ex vivo aqueous humor outflow facility in perfused enucleated porcine eyes; conditions: 25 µM continuous exposure, 2–5 h time points, p < 0.01, porcine eyes ex vivo

ROCK-II, sequence (O75116 whole entry, species assumed): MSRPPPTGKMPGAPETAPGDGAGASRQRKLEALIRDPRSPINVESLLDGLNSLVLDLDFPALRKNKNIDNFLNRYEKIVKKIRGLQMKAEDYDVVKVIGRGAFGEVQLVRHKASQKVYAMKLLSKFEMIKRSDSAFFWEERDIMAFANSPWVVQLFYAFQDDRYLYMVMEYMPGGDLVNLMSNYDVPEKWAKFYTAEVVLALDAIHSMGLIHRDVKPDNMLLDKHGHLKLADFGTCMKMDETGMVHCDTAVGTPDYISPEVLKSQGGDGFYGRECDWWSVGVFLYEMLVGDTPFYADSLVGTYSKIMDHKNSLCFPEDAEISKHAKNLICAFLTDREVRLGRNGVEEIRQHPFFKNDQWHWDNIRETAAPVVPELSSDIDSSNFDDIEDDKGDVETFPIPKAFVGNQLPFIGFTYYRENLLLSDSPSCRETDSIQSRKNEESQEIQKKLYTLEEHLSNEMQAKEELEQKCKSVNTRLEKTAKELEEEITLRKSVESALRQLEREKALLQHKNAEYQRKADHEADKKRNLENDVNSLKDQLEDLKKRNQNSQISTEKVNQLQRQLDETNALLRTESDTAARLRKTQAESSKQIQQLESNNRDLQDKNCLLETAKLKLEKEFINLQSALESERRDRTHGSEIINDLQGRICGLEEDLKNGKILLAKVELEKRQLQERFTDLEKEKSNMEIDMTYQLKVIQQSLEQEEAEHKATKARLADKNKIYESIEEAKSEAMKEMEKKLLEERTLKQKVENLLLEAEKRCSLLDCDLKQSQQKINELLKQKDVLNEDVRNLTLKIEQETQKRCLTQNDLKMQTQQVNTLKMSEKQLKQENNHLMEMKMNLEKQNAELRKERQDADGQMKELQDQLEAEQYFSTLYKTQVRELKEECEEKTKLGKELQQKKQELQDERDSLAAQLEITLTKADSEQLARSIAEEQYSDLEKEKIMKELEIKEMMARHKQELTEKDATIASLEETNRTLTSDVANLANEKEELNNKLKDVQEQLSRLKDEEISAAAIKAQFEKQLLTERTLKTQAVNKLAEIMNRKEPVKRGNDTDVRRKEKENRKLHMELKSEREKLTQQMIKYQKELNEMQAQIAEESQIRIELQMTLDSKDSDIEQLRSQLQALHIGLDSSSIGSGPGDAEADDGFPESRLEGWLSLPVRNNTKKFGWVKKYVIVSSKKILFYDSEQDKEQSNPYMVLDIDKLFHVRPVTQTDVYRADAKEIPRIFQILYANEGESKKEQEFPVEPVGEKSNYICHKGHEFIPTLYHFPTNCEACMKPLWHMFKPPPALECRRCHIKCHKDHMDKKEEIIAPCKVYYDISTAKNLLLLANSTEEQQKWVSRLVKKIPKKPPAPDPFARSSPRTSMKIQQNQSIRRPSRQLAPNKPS

In the case of `CN(C)CCOc1cc(-c2cn[nH]c2)ccc1NC(=O)C1COc2ccccc2O1` (centres unmarked) [Compound 5], the IC50 (ROCK-II) is reported as about 3 nM, the IC50 [1] is reported as about 3 nM and the inhibition at 3 µM (Akt3) is reported as over 50%. The inhibition at 3 µM (Clk1) was over 50%, the inhibition at 3 µM (Clk2) was over 50% and the inhibition at 3 µM (Clk4) was over 50%. The inhibition at 3 µM (Lats2) was over 50%, the off-target hit rate (353 kinases; 353 kinases, hits = inhibition greater than 50%) was 1.4% and the “inhibition of all other kinases of the panel” value (353 kinases; single-point, no or very low inhibition) was under 10%. It also gave an IC50 (adrenergic receptor α1a) of about 1000 nM, an IC50 (adrenergic receptor α1b) of about 1000 nM and an IC50 (adrenergic receptor α2a) of about 1000 nM. The “inhibition of Rho kinase in the TM tissue (p-MLC Western blot)” value [2] was “greater than 90%” and the “increase of aqueous humor outflow facility” value [3] was 70–80%.
